Key:
[1] = test system: C26 cell line (murine colon carcinoma cells); test: MTT cytotoxicity, C26 cells; type: cell-based, mouse; conditions: 48 h treatment
Experimental: (§1) C26 and NIH-3T3 cell lines were cultured at 37 °C in a 5% CO2/95% air humidified atmosphere in RPMI 1640 and DEMEM media, respectively; the media were supplemented with 10% FCS and 100 U/mL penicillin, and 100 μg/mL streptomycin.
(§2) C26 and NIH-3T3 cells were seeded at 5000 cells/well into 96-well plates. […] After 48 h incubation at 37 °C, the cells were washed with PBS and MTT (10 μL/well MTT and 100 μL/well cell media) was added. After an additional incubation for 4 h at 37 °C, the absorbance of MTT was measured using a microplate reader (Awareness Technology Inc., USA) at 570 nm. Relative cell death (R) was calculated as follows:
(§3) R = 1 − [(A sample − A blank)/(A control − A blank)], where A sample and A control are the absorbances of the cells incubated with the sample solutions and the culture medium as the control group, respectively. A blank is the absorbance of MTT solution in a well without cells. The IC50 values were calculated using CalcuSyn Version 2.0 software (BIOSOFT, UK)[52].

[2] = test system: NIH-3T3 cell line (mouse embryonic fibroblast cells); test: MTT cytotoxicity, NIH-3T3 cells; type: cell-based; conditions: 48 h treatment
Experimental: as §1, §2, §3

C26 cells = test: Dox cellular uptake by spectrofluorometry; type: cell-based, mouse; conditions: 1 and 3 h incubation, compared to Caelyx
Experimental: C26 cells were seeded at 1 × 10^6 cells/well in 6-well plates and incubated overnight. […] After 1 and 3 h of incubation at 37 °C, cells were washed with cold PBS. Then, acidified isopropyl alcohol (0.9 mL) was added to each well and transferred to a 2 mL vial and stored at 4 °C for 24 h. Samples were centrifuged for 10 min at 14,000 rpm.

[3] = Plasma Dox concentration and pharmacokinetics after i.v. administration; type: in vivo, BALB/c mice; conditions: Dox 10 mg/kg, mice
C26 tumor = test: Anti-tumor efficacy and survival in mice bearing C26 colon cancer; conditions: single i.v. dose 10 mg/kg Dox

Row | SMILES | melting point [°C] | IC50 (C26) 48 h [1] [µg/mL] | IC50 (NIH) 48 h [2] [µg/mL] | Cellular uptake of Dox (spectrofluorometry) (C26 cells) | AUC (total area under the plasma concentration-time curve) [3] [ng·h/mL] | Cl (clearance) [3] | MST (median survival time) (C26 tumor) [days] | TGD (tumor growth delay) (C26 tumor) [%] | TTE (time to reach end point) ± SD (C26 tumor; C26 tumor, BALB/c mice, listed as Dox.HCl, 10 mg/kg) [days]
1 | O=C(O)CCCCCCCCC[Se][Se]CCCCCCCCCC(=O)O | 82 | – | – | – | – | – | – | – | –
2 | COc1cccc2c1C(=O)c1c(O)c3c(c(O)c1C2=O)C[C@@](O)(C(=O)CO)C[C@@H]3O[C@H]1C[C@H](N)[C@H](O)[C@H](C)O1.Cl [Dox, Doxorubicin hydrochloride] | – | 0.01 ± 0.010 | 0.042 ± 0.013 | highest cellular uptake | 7200 | 1.38 (mg)/(μg/mL)/h | 33.10 | 10.12 | 32.40 ± 5.94

— PMC9253031, “Redox-sensitive doxorubicin liposome: a formulation approach for targeted tumor therapy” (Scientific Reports, 2022)
